The source made the active and inactive calls. The rule behind the calls is not given here.
Legend:
Mus musculus [1] = experiment: Anticonvulsant activity in albino CF1 mouse assessed as protection against subcutaneous metrazole-induced seizures at 30 mg/kg, ip after 4 hrs; type: functional, organism-based; parameters: dose 30 mg/kg
Mus musculus [2] = experiment: Neurotoxicity in albino CF1 mouse assessed as minimal motor impairment at 30 mg/kg, ip after 0.5 hrs by rotarod test; type: toxicity, organism-based; parameters: dose 30 mg/kg, route intraperitoneal; settings: in vivo
Mus musculus [3] = experiment: Anticonvulsant activity in albino CF1 mouse assessed as protection against subcutaneous metrazole-induced seizures at 150 mg/kg, ip after 1 hr; type: functional, organism-based; parameters: dose 150 mg/kg
Mus musculus [4] = experiment: Neurotoxicity in albino CF1 mouse assessed as minimal motor impairment at 30 to 300 mg/kg, ip after 0.5 hrs by rotarod test; settings: in vivo
Rattus norvegicus [5] = experiment: Anticonvulsant activity in albino Sprague-Dawley rat assessed as protection against maximal electroshock-induced seizures at 30 mg/kg, po after 1 hr; type: functional, organism-based; parameters: dose 30 mg/kg
Mus musculus [6] = experiment: Anticonvulsant activity against maximal electroshock-induced seizures in ip dosed albino CF1 mouse assessed as minimum effective dose after 0.5 hrs; type: functional; settings: read-out: MED
Mus musculus [7] = experiment: Neurotoxicity in ip dosed albino CF1 mouse assessed as minimum dose required to cause toxicity after 4 hrs by rotarod test; type: organism-based; settings: in vivo
Mus musculus [8] = experiment: Anticonvulsant activity in albino CF1 mouse assessed as protection against subcutaneous metrazole-induced seizures at 300 mg/kg, ip after 1 hr; type: functional, organism-based; parameters: dose 300 mg/kg
Mus musculus [9] = experiment: Neurotoxicity in albino CF1 mouse assessed as minimal motor impairment at 100 mg/kg, ip after 0.5 hrs by rotarod test; type: toxicity, organism-based; parameters: dose 100 mg/kg, route intraperitoneal; settings: in vivo
Rattus norvegicus [10] = experiment: Neurotoxicity in albino Sprague-Dawley rat assessed as minimal motor impairment at 30 mg/kg, po by rotarod test; type: toxicity, organism-based; parameters: dose 30 mg/kg, route oral; settings: in vivo
Rattus norvegicus [11] = experiment: Anticonvulsant activity in albino Sprague-Dawley rat assessed as protection against maximal electroshock-induced seizures at 30 mg/kg, po after 4 hrs; type: functional, organism-based; parameters: dose 30 mg/kg
Mus musculus [12] = experiment: Neurotoxicity in albino CF1 mouse assessed as minimal motor impairment at 300 mg/kg, ip after 0.5 hrs by rotarod test; type: toxicity, organism-based; parameters: dose 300 mg/kg, route intraperitoneal; settings: in vivo
Mus musculus [13] = experiment: Anticonvulsant activity against maximal electroshock-induced seizures in ip dosed albino CF1 mouse assessed as minimum effective dose after 4 hrs; type: functional; settings: read-out: MED
Mus musculus [14] = experiment: Neurotoxicity in albino CF1 mouse assessed as minimal motor impairment at 140 mg/kg, ip after 1 hr by rotarod test; type: toxicity, organism-based; parameters: dose 140 mg/kg, route intraperitoneal; settings: in vivo
Mus musculus [15] = species on record: Mus musculus; experiment: Protective index, ratio of TD50 for albino CF1 mouse by rotarod test to ED50 for albino CF1 mouse by maximal electroshock seizures test; type: functional
Rattus norvegicus [16] = experiment: Anticonvulsant activity in albino Sprague-Dawley rat assessed as protection against maximal electroshock-induced seizures at 30 mg/kg, po after 0.25 hrs; type: functional, organism-based; parameters: dose 30 mg/kg
Mus musculus [17] = experiment: Neurotoxicity in albino CF1 mouse assessed as minimal motor impairment at 100 mg/kg, ip after 2 hrs by rotarod test; type: toxicity, organism-based; parameters: dose 100 mg/kg, route intraperitoneal; settings: in vivo
Mus musculus [18] = experiment: Anticonvulsant activity against subcutaneous metrazole-induced seizures in ip dosed albino CF1 mouse assessed as minimum effective dose after 4 hrs; type: functional; settings: albino CF1, 4 h, read-out: MED
Mus musculus [19] = experiment: Anticonvulsant activity in albino CF1 mouse assessed as protection against maximal electroshock-induced seizures at 100 mg/kg, ip after 2 hrs; type: functional, organism-based; parameters: dose 100 mg/kg
Mus musculus [20] = experiment: Anticonvulsant activity in albino CF1 mouse assessed as protection against subcutaneous metrazole-induced seizures at 300 mg/kg, ip after 4 hrs; type: functional, organism-based; parameters: dose 300 mg/kg
Mus musculus [21] = experiment: Anticonvulsant activity in albino CF1 mouse assessed as protection against maximal electroshock-induced seizures at 100 mg/kg, ip after 0.5 hrs; type: functional, organism-based; parameters: dose 100 mg/kg
Mus musculus [22] = species on record: Mus musculus; experiment: Protective index, ratio of TD50 for albino CF1 mouse after 1 hr by rotarod test to ED50 for albino CF1 mouse by maximal electroshock seizures test after 1 hr; type: functional
Mus musculus [23] = experiment: Anticonvulsant activity ip dosed albino CF1 mouse assessed as protection against maximal electroshock-induced seizures after 0.25 hrs; type: functional
Mus musculus [24] = experiment: Anticonvulsant activity in albino CF1 mouse assessed as protection against subcutaneous metrazole-induced seizures at 100 mg/kg, ip after 0.5 hrs; type: functional, organism-based; parameters: dose 100 mg/kg
Mus musculus [25] = experiment: Anticonvulsant activity in albino CF1 mouse assessed as protection against maximal electroshock-induced seizures at 30 mg/kg, ip after 4 hrs; type: functional, organism-based; parameters: dose 30 mg/kg
Mus musculus [26] = experiment: Neurotoxicity in albino CF1 mouse assessed as minimal motor impairment at 100 mg/kg, ip after 1 hr by rotarod test; type: toxicity, organism-based; parameters: dose 100 mg/kg, route intraperitoneal; settings: in vivo
Mus musculus [27] = experiment: Neurotoxicity in albino CF1 mouse assessed as minimal motor impairment at 300 mg/kg, ip after 4 hrs by rotarod test; type: toxicity, organism-based; parameters: dose 300 mg/kg, route intraperitoneal; settings: in vivo
Rattus norvegicus [28] = experiment: Anticonvulsant activity in albino Sprague-Dawley rat assessed as protection against maximal electroshock-induced seizures at 30 mg/kg, po after 2 hrs; type: functional, organism-based; parameters: dose 30 mg/kg
Mus musculus [29] = experiment: Anticonvulsant activity in albino CF1 mouse assessed as protection against maximal electroshock-induced seizures at 300 mg/kg, ip after 0.5 hrs; type: functional, organism-based; parameters: dose 300 mg/kg
Mus musculus [30] = experiment: Neurotoxicity in albino CF1 mouse assessed as minimal motor impairment at 100 mg/kg, ip after 4 hrs by rotarod test; type: toxicity, organism-based; parameters: dose 100 mg/kg, route intraperitoneal; settings: in vivo
[31] = molecular target: Sodium channel protein type 2 subunit alpha (Homo sapiens, UniProt Q99250); experiment: Inhibition of human NaV1.2 expressed in HEK cells at -60 mV holding potential by patch clamp recording technique; type: cell-based, HEK293
Sequence of Sodium channel protein type 2 subunit alpha (Q99250 whole entry): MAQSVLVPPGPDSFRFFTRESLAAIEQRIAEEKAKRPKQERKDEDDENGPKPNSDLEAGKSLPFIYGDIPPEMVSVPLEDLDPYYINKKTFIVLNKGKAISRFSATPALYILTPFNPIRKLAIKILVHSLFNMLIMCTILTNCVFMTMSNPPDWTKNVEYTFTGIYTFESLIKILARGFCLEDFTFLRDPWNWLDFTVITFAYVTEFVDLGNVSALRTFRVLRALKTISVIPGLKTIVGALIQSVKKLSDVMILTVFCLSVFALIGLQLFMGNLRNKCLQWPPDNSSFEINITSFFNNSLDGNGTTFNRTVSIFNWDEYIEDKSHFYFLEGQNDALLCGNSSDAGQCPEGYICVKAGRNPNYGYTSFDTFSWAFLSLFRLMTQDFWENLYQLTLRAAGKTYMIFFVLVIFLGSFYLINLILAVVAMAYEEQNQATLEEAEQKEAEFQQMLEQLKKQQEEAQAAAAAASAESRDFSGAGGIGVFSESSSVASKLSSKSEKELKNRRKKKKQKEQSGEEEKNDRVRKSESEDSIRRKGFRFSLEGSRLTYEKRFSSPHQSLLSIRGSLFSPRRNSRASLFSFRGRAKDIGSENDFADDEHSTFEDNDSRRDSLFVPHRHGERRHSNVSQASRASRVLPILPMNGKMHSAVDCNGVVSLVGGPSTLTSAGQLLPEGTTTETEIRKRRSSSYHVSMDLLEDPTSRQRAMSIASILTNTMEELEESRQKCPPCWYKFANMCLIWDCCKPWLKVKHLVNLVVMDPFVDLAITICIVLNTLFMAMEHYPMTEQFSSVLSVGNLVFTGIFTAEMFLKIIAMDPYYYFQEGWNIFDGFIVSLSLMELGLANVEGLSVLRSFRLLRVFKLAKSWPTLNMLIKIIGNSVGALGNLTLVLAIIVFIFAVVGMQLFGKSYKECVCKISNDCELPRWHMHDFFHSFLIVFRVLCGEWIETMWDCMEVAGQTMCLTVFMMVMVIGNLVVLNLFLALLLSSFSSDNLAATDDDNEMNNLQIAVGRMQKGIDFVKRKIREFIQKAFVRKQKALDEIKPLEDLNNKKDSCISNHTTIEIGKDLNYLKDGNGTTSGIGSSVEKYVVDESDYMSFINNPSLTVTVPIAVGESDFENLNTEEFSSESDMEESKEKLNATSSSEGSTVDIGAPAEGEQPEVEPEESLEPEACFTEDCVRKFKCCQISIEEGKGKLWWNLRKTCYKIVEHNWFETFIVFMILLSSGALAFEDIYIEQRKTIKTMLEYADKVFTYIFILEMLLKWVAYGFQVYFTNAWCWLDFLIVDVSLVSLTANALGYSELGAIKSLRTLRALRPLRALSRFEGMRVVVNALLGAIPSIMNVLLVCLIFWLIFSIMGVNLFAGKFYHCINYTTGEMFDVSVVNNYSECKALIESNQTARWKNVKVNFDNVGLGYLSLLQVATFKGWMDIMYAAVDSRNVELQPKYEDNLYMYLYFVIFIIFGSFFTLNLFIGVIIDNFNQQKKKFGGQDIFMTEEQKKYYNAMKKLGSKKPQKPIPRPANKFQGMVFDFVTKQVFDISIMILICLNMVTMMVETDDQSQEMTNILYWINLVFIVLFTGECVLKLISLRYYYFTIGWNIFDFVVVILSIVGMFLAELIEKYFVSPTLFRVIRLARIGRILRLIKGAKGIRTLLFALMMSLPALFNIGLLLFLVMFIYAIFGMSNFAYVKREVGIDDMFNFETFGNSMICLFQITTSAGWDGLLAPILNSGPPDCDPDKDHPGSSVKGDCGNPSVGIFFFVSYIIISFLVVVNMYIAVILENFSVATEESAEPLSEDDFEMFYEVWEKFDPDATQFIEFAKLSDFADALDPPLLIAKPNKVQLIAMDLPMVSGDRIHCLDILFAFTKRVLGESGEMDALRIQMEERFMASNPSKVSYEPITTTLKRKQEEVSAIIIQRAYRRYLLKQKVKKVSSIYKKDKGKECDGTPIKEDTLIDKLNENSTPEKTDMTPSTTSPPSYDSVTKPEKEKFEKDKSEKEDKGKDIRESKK

Mus musculus [32] = experiment: Anticonvulsant activity in albino CF1 mouse assessed as protection against maximal electroshock-induced seizures at 300 mg/kg, ip after 4 hrs; type: functional, organism-based; parameters: dose 300 mg/kg
[33] = Neurotoxicity in ip dosed albino CF1 mouse assessed as minimal motor impairment after 1 hr by rotarod test; type: toxicity, organism-based; settings: in vivo
Mus musculus [34] = experiment: Anticonvulsant activity in albino CF1 mouse assessed as protection against maximal electroshock-induced seizures at 60 mg/kg, ip after 1 hr; type: functional, organism-based; parameters: dose 60 mg/kg
Mus musculus [35] = experiment: Neurotoxicity in albino CF1 mouse assessed as minimal motor impairment at 100 mg/kg, ip after 0.25 hrs by rotarod test; type: toxicity, organism-based; parameters: dose 100 mg/kg, route intraperitoneal; settings: in vivo
Mus musculus [36] = experiment: Anticonvulsant activity in albino CF1 mouse assessed as protection against subcutaneous metrazole-induced seizures at 100 mg/kg, ip after 4 hrs; type: functional, organism-based; parameters: dose 100 mg/kg
Mus musculus [37] = experiment: Anticonvulsant activity in albino CF1 mouse assessed as protection against maximal electroshock-induced seizures at 100 mg/kg, ip after 4 hrs; type: functional, organism-based; parameters: dose 100 mg/kg
Mus musculus [38] = experiment: Anticonvulsant activity in albino CF1 mouse assessed as protection against subcutaneous metrazole-induced seizures at 75 mg/kg, ip after 1 hr; type: functional, organism-based; parameters: dose 75 mg/kg
Rattus norvegicus [39] = experiment: Anticonvulsant activity in albino Sprague-Dawley rat assessed as protection against maximal electroshock-induced seizures at 30 mg/kg, po after 0.5 hrs; type: functional, organism-based; parameters: dose 30 mg/kg
Mus musculus [40] = experiment: Neurotoxicity in albino CF1 mouse assessed as minimal motor impairment at 30 mg/kg, ip after 4 hrs by rotarod test; type: toxicity, organism-based; parameters: dose 30 mg/kg, route intraperitoneal; settings: in vivo
Mus musculus [41] = experiment: Anticonvulsant activity in albino CF1 mouse assessed as protection against maximal electroshock-induced seizures at 30 mg/kg, ip after 0.5 hrs; type: functional, organism-based; parameters: dose 30 mg/kg
Mus musculus [42] = experiment: Neurotoxicity in ip dosed albino CF1 mouse assessed as minimum dose required to cause toxicity after 0.5 hrs by rotarod test; type: organism-based; settings: in vivo
Mus musculus [43] = experiment: Neurotoxicity in albino CF1 mouse assessed as minimal motor impairment at 30 to 300 mg/kg, po after 4 hrs by rotarod test; type: toxicity, organism-based; parameters: dose 30-300 mg/kg, route oral; settings: in vivo
Mus musculus [44] = experiment: Anticonvulsant activity in albino CF1 mouse assessed as protection against subcutaneous metrazole-induced seizures at 30 mg/kg, ip after 0.5 hrs; type: functional, organism-based; parameters: dose 30 mg/kg
Mus musculus [45] = experiment: Anticonvulsant activity in albino CF1 mouse assessed as protection against subcutaneous metrazole-induced seizures at 300 mg/kg, ip after 0.5 hrs; type: functional, organism-based; parameters: dose 300 mg/kg
Mus musculus [46] = experiment: Anticonvulsant activity ip dosed albino CF1 mouse assessed as protection against maximal electroshock-induced seizures after 1 hr; type: functional

## FC(F)(F)c1ccc(-c2nc(-c3ccccc3)c[nH]2)cc1
Mus musculus [1]
  Activity: inactive
Mus musculus [2]
  Activity: Non-toxic
Mus musculus [3]
  Activity: inactive
Mus musculus [4]
  Activity: Non-toxic
Rattus norvegicus [5]
  Activity: inactive
Mus musculus [6]
  minimal effective dose: 100 mg/kg
Mus musculus [7]
  MED: > 300 mg/kg
Mus musculus [8]
  Activity: inactive
Mus musculus [9]
  Activity: Non-toxic
Rattus norvegicus [10]
  Activity: Non-toxic
Rattus norvegicus [11]
  Activity: inactive
Mus musculus [12]
  Activity: Non-toxic
Mus musculus [13]
  minimal effective dose: 100 mg/kg
Mus musculus [14]
  Activity: Non-toxic
Mus musculus [15]
  PI: >3.8
Rattus norvegicus [16]
  Activity: inactive
Mus musculus [17]
  Activity: Non-toxic
Mus musculus [18]
  minimal effective dose: > 300 mg/kg
Mus musculus [19]
  Activity: inactive
Mus musculus [20]
  Activity: inactive
Mus musculus [21]
  Activity: inactive
Mus musculus [22]
  PI: > 3.8
Mus musculus [23]
  ED50: 130 mg/kg
Mus musculus [24]
  Activity: inactive
Mus musculus [25]
  Activity: inactive
Mus musculus [26]
  Activity: Non-toxic
Mus musculus [27]
  Activity: Non-toxic
Rattus norvegicus [28]
  Activity: inactive
Mus musculus [29]
  Activity: Active
Mus musculus [30]
  Activity: Non-toxic
[31]
  IC50: 10.1 µM
Mus musculus [32]
  Activity: Active
[33]
  TD50 at 1 h: > 500 mg/kg
Mus musculus [34]
  Activity: inactive
Mus musculus [35]
  Activity: Non-toxic
Mus musculus [36]
  Activity: inactive
Mus musculus [37]
  Activity: inactive
Mus musculus [38]
  Activity: inactive
Rattus norvegicus [39]
  Activity: inactive
Mus musculus [40]
  Activity: Non-toxic
Mus musculus [41]
  Activity: inactive
Mus musculus [42]
  MED: > 300 mg/kg
Mus musculus [43]
  Activity: Non-toxic
Mus musculus [44]
  Activity: inactive
Mus musculus [45]
  Activity: inactive
Mus musculus [46]
  ED50: 130 mg/kg
